Measured values published in patent publication EP0939136A1, “Assay for predicting the angiographic response to lipid-lowering therapy in patients” (Academisch Ziekenhuis bij de Universiteit van Amsterdam, priority 1998, dated 1999).

Key:
Assay type in all cases: in vivo, male patients
[1] = REGRESS trial: events (death and myocardial infarction); conditions: 40 mg/day, two years
Description: (§1) 807 Male patients participating in the Regression Growth Evaluation Statin Study (REGRESS), which has previously been described in detail (Kuivenhoven et al., Arterioscler. Thromb. Vasc. Biol. 17:560-568 (1997)) were prospectively studied. In short, study participants were required to have at least one coronary artery with a stenosis off >50 percent as assessed by coronary angiography, a plasma total cholesterol concentration of 155-310 mg per deciliter (4 to 8 millimole per liter) and triglycerides of 350 mg per deciliter(< 4 millimole per liter). Patients were subsequently randomized to treatment with pravastatin sodium (Pravachol®; 40 mg/day ) or to placebo for a period of two years. The placebo group contained 396 patients and the group treated with pravastatin contained 411 patients.
Differences in rate of events between genotypes were analyzed with Pearson Chi-square tests within the medication groups, and the interaction between genotype and medication with logistic regression. Within each of the patient groups, the Hardy-Weinberg equilibrium was tested by means of gene counting and χ^2 analysis. Throughout, a P value of 0.05 was interpreted as representing a statistically significant difference. All statistical analyses were carried out with the Statistical Analysis System (SAS, version 6.1, SAS Institute, Cari, NC) and adapted from the EGRET Manual, (Statistical and Epidemiological Research Corporation, 1991, Seattle, Washington, USA).
Abbreviations: MSD = mean segment Diameter; MOD = minimum obstruction diameter (Note: A larger figure for either a decrease in mean segment diameter (MSD) or minimum obstruction diameter (MOD) indicates more progression of atherosclerosis). SD = standard deviation; IQR = interquartile range; * P value of covariance analysis of the change measures with baseline values as covariate, or chi-square test (where appropriate), comparing the three CETP-TaqIB genotypes; ^† P value of the interaction test of the interaction between treatment (placebo/pravastatin) and the CETP TaqIB genotype (B1B1-B1B2-B2B2) of covariance analysis with baseline values as covariate or of logistic regression, where appropriate. P values while comparing TaqIB subgroup of the placebo group with the pravastatin group: ^‡ P<0.001; ^§ P<0.38; ^¶ P<0.30; ^¥ P<0.002; ** P<0.01; ^†† P<0.48. ? Events are defined as death and myocardial infarction. For conversion from mg.dL^-1 to mmol.L^-1 for total cholesterol, LDL cholesterol and HDL cholesterol levels, multiply by factor 0.02586. For conversion of triglyceride levels from mg.dL^-1 to mmol.L^-1, use 0.01129. [formula] [formula] [formula]

[2] = REGRESS trial: computer-assisted quantitative coronary angiography (MSD, MOD); conditions: for MOD decrease: median (IQR) / MSD decrease: mean (SD): 40 mg/day, two years, larger figure = more progression of atherosclerosis
Description: as §1
Computer-assisted quantitative coronary angiography was carried out at the start and at the end of the study. The two following primary measures of outcome were used: (a) the change in the average Mean Segment Diameter (MSD) per patient (also known as Mean Lumen Diameter) reflecting diffuse changes of atherosclerosis, and (b) the change in the average Minimum Obstruction Diameter […]) which reflects the focal change of atherosclerosis. Given these definitions, one should note that a greater decrease in MSD and/or MOD reflects more progression of coronary atherosclerosis.
(§2) The differences between carriers of the three TaqIB genotypes (i.e. B1B1, B1B2, and B2B2) were tested using one-way ANOVA or Pearson's Chi-square test. Changes in lipids, lipoproteins and angiographic parameters during the trial period were quantified with means and standard deviations, and the differences within the two medication groups were tested using one-way covariance analysis with baseline levels as covariates.
The interaction between the three CETP TaqIB genotypes and medication (placebo/pravastatin) was tested using the interaction test of two-way covariance analysis. It was checked whether the above interaction between genotype and medication was dependent of baseline HDL cholesterol concentration, changes in HDL during the trial, baseline MSD, baseline MOD, and each of hepatic lipase or lipoprotein lipase activity by using these as covariates in two-way covariance analysis. The latter analysis was also carried out to test if the significant differences in decrease in either MSD or MOD as identified amongst the TaqIB subgroups in the placebo group, were dependent on the above parameters.

CETP = experiment: Plasma CETP concentration by solid phase radioimmunoassay; conditions: 68 pravastatin-treated subjects, P<0.001
Description: as §1
Plasma lipids and lipoproteins were measured using standard techniques (Groenemeyer et al., Circulation 95:2628-2653 (1997)). Due to a lack of sufficient aliquots of plasma, CETP concentrations were determined in 237 patients at baseline, and in only 68 pravastatin-treated subjects at the end of the trial. […]

[3] = REGRESS trial: in-trial changes in plasma lipids and lipoproteins; conditions: 40 mg/day, two years
Description: as §1
Plasma lipids and lipoproteins were measured using standard techniques (Groenemeyer et al., Circulation 95:2628-2653 (1997)). Due to a lack of sufficient aliquots of plasma, CETP concentrations were determined in 237 patients at baseline, and in only 68 pravastatin-treated subjects at the end of the trial. These measurements were performed by solid phase radioimmunoassay using recombinant human protein (provided by Dr. A.Tall; Columbia University, New York) as standard and a CETP monoclonal antibody, TP2 (produced by Dr. R. Milne; University of Ottawa Heart Institute; Ottawa, McPherson et al., Arterioscler. Thromb 11:797-804 (1991). In addition, the lipase and lipoprotein lipase activities were measured as reported (Groenemeyer et al., supra).
as §2

[4] = CETP TaqIB genotype B1B1 (n=136)
[5] = CETP TaqIB genotype B1B2 (n=212)
[6] = CETP TaqIB genotype B2B2 (n=63)

CC[C@H](C)C(=O)O[C@H]1C[C@H](O)C=C2C=C[C@H](C)[C@H](CC[C@@H](O)C[C@@H](O)CC(=O)O)[C@H]21 [Pravastatin, pravastatin sodium]
Events (yes/no): (%) [1, 4]: 2.9% | Events (yes/no): n [1, 4]: 4 | Events (yes/no): (%) [1, 5]: 1.9% | Events (yes/no): n [1, 5]: 4 | Events (yes/no): (%) [1, 6]: 0.0% | Events (yes/no): n [1, 6]: 0 | progression of coronary atherosclerosis compared with counterparts in the placebo group ([2]; B2B2 homozygotes, end of the study): statistically non-significant larger progression | MOD decrease: median (IQR) [2, 4]: 0.01 (.19) mm | MSD decrease: mean (SD) [2, 4]: 0.05 (.16) mm | MOD decrease: median (IQR) [2, 5]: 0.04 (.21) mm | MSD decrease: mean (SD) [2, 5]: 0.07 (.20) mm | MOD decrease: median (IQR) [2, 6]: 0.04 (.22) mm | MSD decrease: mean (SD) [2, 6]: 0.09 (.16) mm | progression of coronary atherosclerosis compared with counterparts in the placebo group ([2]; carriers of one B1 allele (B1B2), MOD, P<0.01): significantly less focal atherosclerosis | progression of coronary atherosclerosis compared with counterparts in the placebo group ([2]; carriers of two B1 alleles (B1B1), smaller decreases of MSD and MOD (P<0.001, P<0.002)): significantly less progression of coronary atherosclerosis | plasma CETP concentration (CETP; end of the trial (baseline 2.03±0.53)): 1.71±0.46 µg per milliliter | reduction in plasma CETP concentrations (CETP; end of the trial compared with baseline): 16% | HDL cholesterol incr.: mean (SD) [3, 4]: 4.3 (6.2) mg.dL^-1 | LDL cholesterol red.: mean (SD) [3, 4]: 56.8 (26.7) mg.dL^-1 | Total cholesterol red.: mean (SD) [3, 4]: 53.8 (32.1) mg.dL^-1 | Triglyceride red.: ln(g.mean) (CV) [3, 4]: 7.1 (32.8) mg.dL^-1 | HDL cholesterol incr.: mean (SD) [3, 5]: 3.9 (7.0) mg.dL^-1 | LDL cholesterol red.: mean (SD) [3, 5]: 49.5 (29) mg.dL^-1 | Total cholesterol red.: mean (SD) [3, 5]: 48.3 (32.5) mg.dL^-1 | Triglyceride red.: ln(g.mean) (CV) [3, 5]: 7.1 (37.2) mg.dL^-1 | HDL cholesterol incr.: mean (SD) [3, 6]: 3.5 (6.6) mg.dL^-1 | LDL cholesterol red.: mean (SD) [3, 6]: 56.5 (33.6) mg.dL^-1 | Total cholesterol red.: mean (SD) [3, 6]: 54.1 (35.2) mg.dL^-1 | Triglyceride red.: ln(g.mean) (CV) [3, 6]: 5.3 (38.1) mg.dL^-1
